In ChEMBL document CHEMBL1201862, “PubChem BioAssay data set” (2004):
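These data come from cells grown in 96-well plates and exposed to compound for 48 hours at five concentrations. GI50 is the concentration that inhibits growth by half.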 Active and inactive are the calls of the source. Cut-off read from the data, not from the text of the source: active = GI50 up to about 1.1 µM and inactive = higher.

Tests used:
Experiment in all cases: inhibition of tumour cell growth, NCI panel, 48 h
786-0 = tested on: 786-0
A498 = tested on: A498
A549 = tested on: A549
BT-549 = tested on: BT-549
CAKI-1 = tested on: CAKI-1
CCRF-CEM = tested on: CCRF-CEM
COLO 205 = tested on: COLO 205
DU-145 = tested on: DU-145
EKVX = tested on: EKVX
HCT-116 = tested on: HCT-116
HCT-15 = tested on: HCT-15
HL-60 = tested on: HL-60
HOP-62 = tested on: HOP-62
HOP-92 = tested on: HOP-92
HT-29 = tested on: HT-29
Hs-578T = tested on: Hs-578T
IGROV-1 = tested on: IGROV-1
K562 = tested on: K562
KM12 = tested on: KM12
LOX IMVI = tested on: LOX IMVI
M14 = tested on: M14
MCF7 = tested on: MCF7
MDA-MB-231 = tested on: MDA-MB-231
MDA-MB-435 = tested on: MDA-MB-435
MDA-N = tested on: MDA-N
MOLT-4 = tested on: MOLT-4
Malme-3M = tested on: Malme-3M
NCI-H226 = tested on: NCI-H226
NCI-H23 = tested on: NCI-H23
NCI-H522 = tested on: NCI-H522
NCI/ADR-RES = tested on: NCI/ADR-RES
OVCAR-3 = tested on: OVCAR-3
OVCAR-5 = tested on: OVCAR-5
OVCAR-8 = tested on: OVCAR-8
PC-3 = tested on: PC-3
RPMI-8226 = tested on: RPMI-8226
SF-268 = tested on: SF-268
SF-295 = tested on: SF-295
SF-539 = tested on: SF-539
SK-MEL-28 = tested on: SK-MEL-28
SK-MEL-2 = tested on: SK-MEL-2
SK-MEL-5 = tested on: SK-MEL-5
SK-OV-3 = tested on: SK-OV-3
SN12C = tested on: SN12C
SNB-75 = tested on: SNB-75
SR = tested on: SR
SW-620 = tested on: SW-620
T47D = tested on: T47D
TK-10 = tested on: TK-10
U-251 = tested on: U-251
UACC-257 = tested on: UACC-257
UACC-62 = tested on: UACC-62
UO-31 = tested on: UO-31
ACHN = tested on: ACHN
HCC 2998 = tested on: HCC 2998
NCI-H460 = tested on: NCI-H460
OVCAR-4 = tested on: OVCAR-4
SNB-19 = tested on: SNB-19
RXF 393 = tested on: RXF 393

Measured: GI50

O=C1c2ccccc2-c2c1c1ccccc1c(=O)n2Cc1ccco1
> 100 µM: HCT-15
inactive: 786-0 > 100 µM | A498 > 100 µM | A549 > 100 µM | BT-549 > 100 µM | CAKI-1 > 100 µM | CCRF-CEM > 100 µM | COLO 205 > 100 µM | DU-145 > 100 µM | EKVX > 100 µM | HCT-116 > 100 µM | HL-60 > 100 µM | HOP-62 47.1 µM | HOP-92 > 100 µM | HT-29 > 100 µM | Hs-578T 54.6 µM | IGROV-1 > 100 µM | K562 > 100 µM | KM12 > 100 µM | LOX IMVI > 100 µM | M14 > 100 µM | MCF7 > 100 µM | MDA-MB-231 > 100 µM | MDA-MB-435 > 100 µM | MDA-N > 100 µM | MOLT-4 > 100 µM | Malme-3M > 100 µM | NCI-H226 > 100 µM | NCI-H23 > 100 µM | NCI-H522 > 100 µM | NCI/ADR-RES > 100 µM | OVCAR-3 > 100 µM | OVCAR-5 > 100 µM | OVCAR-8 > 100 µM | PC-3 > 100 µM | RPMI-8226 > 100 µM | SF-268 > 100 µM | SF-295 > 100 µM | SF-539 39.6 µM | SK-MEL-28 > 100 µM | SK-MEL-2 > 100 µM | SK-MEL-5 > 100 µM | SK-OV-3 > 100 µM | SN12C > 100 µM | SNB-75 48.6 µM | SR > 100 µM | SW-620 > 100 µM | T47D > 100 µM | TK-10 > 100 µM | U-251 > 100 µM | UACC-257 > 100 µM | UACC-62 > 100 µM | UO-31 > 100 µM

CCCCCCC(CCl)c1sc(-c2csc(CCNC(=O)OC(C)(C)C)n2)nc1C(=O)OC (configuration not stated)
14.1 µM: HCT-15
inactive: 786-0 19.3 µM | A498 28.8 µM | A549 26.4 µM | ACHN 23.3 µM | BT-549 18.5 µM | CAKI-1 29 µM | CCRF-CEM 17.2 µM | COLO 205 35.6 µM | DU-145 33.7 µM | EKVX 26.6 µM | HCC 2998 22.7 µM | HCT-116 15.5 µM | HL-60 17.3 µM | HOP-62 39.8 µM | HOP-92 40.8 µM | HT-29 20.6 µM | Hs-578T 16.2 µM | IGROV-1 30.2 µM | K562 13.5 µM | KM12 17.8 µM | LOX IMVI 13.2 µM | MCF7 11 µM | MDA-MB-231 26.9 µM | MDA-MB-435 12.5 µM | MDA-N 26.7 µM | MOLT-4 4.58 µM | NCI-H23 15.3 µM | NCI-H460 18.2 µM | NCI-H522 22 µM | NCI/ADR-RES 2.32 µM | OVCAR-3 21.9 µM | OVCAR-4 9.98 µM | OVCAR-5 32.1 µM | OVCAR-8 24.6 µM | PC-3 15.9 µM | RPMI-8226 9.68 µM | SF-268 20.3 µM | SF-295 32.2 µM | SF-539 21.4 µM | SK-MEL-28 28.6 µM | SK-MEL-2 11.7 µM | SK-MEL-5 4.37 µM | SK-OV-3 19.1 µM | SN12C 19.2 µM | SNB-19 40.6 µM | SR 3.94 µM | SW-620 36 µM | T47D 3.53 µM | TK-10 20.4 µM | U-251 16.2 µM | UACC-257 27.1 µM | UACC-62 13.8 µM | UO-31 14.9 µM

C#CC(=O)OCC#CCOC(=O)C#C
inactive: 786-0 15 µM | A498 > 100 µM | A549 27.9 µM | ACHN 18.3 µM | BT-549 18.6 µM | CAKI-1 19.8 µM | CCRF-CEM 15.9 µM | COLO 205 17.9 µM | DU-145 26.8 µM | EKVX 14.2 µM | HCC 2998 19.6 µM | HCT-116 15.7 µM | HOP-62 21.6 µM | HOP-92 16.9 µM | HT-29 23 µM | Hs-578T 27.8 µM | KM12 19.3 µM | M14 23.4 µM | MCF7 20.9 µM | MDA-MB-231 25.5 µM | MDA-MB-435 28.8 µM | MDA-N 38.8 µM | Malme-3M 19.1 µM | NCI-H226 19 µM | NCI-H23 23.3 µM | NCI-H460 > 100 µM | NCI-H522 3.23 µM | NCI/ADR-RES 24.9 µM | OVCAR-3 17.9 µM | OVCAR-8 30.8 µM | PC-3 28.7 µM | RPMI-8226 15.1 µM | RXF 393 19.1 µM | SF-268 > 100 µM | SF-295 > 100 µM | SF-539 15.3 µM | SK-MEL-2 20.2 µM | SK-MEL-5 72.9 µM | SK-OV-3 > 100 µM | SN12C 28.5 µM | SNB-19 > 100 µM | SW-620 20 µM | T47D 23.7 µM | TK-10 16.3 µM | U-251 17.5 µM | UACC-257 > 100 µM | UACC-62 22.7 µM | UO-31 9.14 µM
active: LOX IMVI 1.05 µM
18.7 µM: HCT-15
